# From patent US20250313553A1, “ANNULATED 2-AMINO-3-CYANO THIOPHENES AND DERIVATIVES FOR THE TREATMENT OF CANCER” (Boehringer Ingelheim Int'l GmbH Corp., priority 2021, published 2025)
# What was measured:
# NCI-H358 cells = experiment: NCI-H358 CTG proliferation assay (120 h), assay 1; assay type: cell-based; details: Homo sapiens, 96 well, 2000 cells per well
# Description: NCI-H358 cells (ATCC No. CRL-5807) are dispensed into white bottom opaque 96 well plates (Perkin Elmer cat no. 5680) at a density of 2000 cells per well in 100 μL RPMI-1640 ATCC-Formulation (Gibco #A10491)+10% FCS (fetal calf serum) (assay 1) or into black 384-well plates, flat and clear bottom (Greiner, PNr. 781091) at a density of 200 cells per well in 60 μl RPMI-1640 ATCC-Formulation (Gibco #A10491)+10% FCS (fetal calf serum) (assay 2). […] Compounds (10 mM stock in DMSO) are added at logarithmic dose series using the HP Digital Dispenser D300 (Tecan) (assay 1) or the ECHO acoustic liquid handler system (Beckman Coulter) (assay 2), normalizing for added DMSO and including DMSO controls. For the T0 time point measurement, untreated cells are analyzed at the time of compound addition. Plates are incubated for 120 h, and cell viability is measured using CellTiter-Glo luminescent cell viability reagent (Promega product code G7570). Viability (stated as percent of control) is defined as relative luminescence units RLU of each well divided by the RLU of cells in DMSO controls. IC50 values are determined from viability measurements by non-linear regression using a four-parameter model.
# GP2D cells = experiment: GP2D proliferation assay (120 h); assay type: cell-based; details: colorectal cancer, G12D
# Description: GP2D cells (ATCC No. CRL-5807) are dispensed into white 384-well plates, flat and white bottom(Perkin Elmer, 6007680) at a density of 500 cells per well in 40 μl DMEM (Sigma, D6429)+1×GlutaMAX (Gibco, 35050038)+10% FCS (fetal calf serum). […] Compounds (10 mM stock in DMSO) are added at logarithmic dose series using the HP Digital Dispenser D300 (Tecan), including DMSO controls and normalizing for added DMSO. For the T0 time point measurement, untreated cells are analyzed at the time of compound addition. Plates are incubated for 120 h, and cell viability is measured using CellTiter-Glo luminescent cell viability reagent (Promega product code G7570). Viability (stated as percent of control) is defined as relative luminescence units RLU of each well divided by the RLU of cells in DMSO controls. IC50 values are determined from viability measurements by non-linear regression using a four-parameter model.
IC50 (NCI-H358 cells) [nM],Structure (SMILES),IC50 (GP2D cells) [nM]
5410,C[C@H](Oc1nccc(-c2noc([C@@]3(C)CCCc4sc(N)c(C#N)c43)n2)n1)[C@@H]1CCCN1C [Example V-10],
,C[C@H](Oc1ccnc(-c2noc([C@@]3(C)CCCc4sc(N)c(C#N)c43)n2)n1)[C@@H]1CCCN1C [Example V-11],152
698,CC(C)N1CCCN(c2nccc(-c3noc([C@@]4(C)CCCc5sc(N)c(C#N)c54)n3)n2)[C@@H](C)C1 [Example V-9],
